Test [1] has as its system Mycobacterium tuberculosis. Description: Antimycobacterial activity against multidrug resistance Mycobacterium tuberculosis CCM11.1 assessed as reduction in bacterial growth incubated for 7 days by resazurin based assay. It counts as functional. As to conditions: CCM11.1, 168 h. A general note: Alamar Blue is a resazurin reagent that responds to reducing activity.
In test [2] the test system is Mycobacterium tuberculosis. Description: Antimycobacterial activity against multidrug resistance Mycobacterium tuberculosis CCM10.1 assessed as reduction in bacterial growth incubated for 7 days by resazurin based assay. It counts as functional. The following applies: CCM10.1, 168 h.

Each structure is given as a SMILES string. Values after ≈ are worked out from the molar mass of the structure shown.

This passage reports MIC results from ChEMBL document CHEMBL4613277, “Improving the Potency of N-Aryl-2,5-dimethylpyrroles against Multidrug-Resistant and Intracellular Mycobacteria” (ACS Med Chem Lett, 2020).

What is called MIC is the lowest concentration that inhibits growth of the organism. Turning to `COc1ccc(-n2c(C)cc(CNC3CCCCC3)c2C)cc1`, the MIC in test [1] is 0.5 µg/mL (≈ 1.6 µM); in test [2], less than 0.000625 µg/mL.
As to `Cc1cc(CN[C@H]2C[C@@H]3CC[C@H]2C3)c(C)n1-c1ccc(Cl)cc1`, the results for the MIC in test [1] and in test [2] were 1 µg/mL (≈ 3.04 µM) and 0.0025 µg/mL (≈ 0.0076 µM), respectively.
Taken in the same sequence, the figures for `Cc1cc(CNC2CCCCC2)c(C)n1-c1ccc(C(C)C)cc1` were 0.5 µg/mL (≈ 1.54 µM) and 0.00125 µg/mL (≈ 0.00385 µM).
Turning to `Cc1cc(CNCC2CCCCC2)c(C)n1-c1ccc(Cl)cc1`, the MIC in test [1] is 0.12 µg/mL (≈ 0.363 µM); in test [2] it was less than 0.000625 µg/mL.
